Patent US9023865B2, “Compounds that are ERK inhibitors” (Merck Sharp & Dohme Corp., priority 2011, dated 2015)

Target: Active Human ERK2 (hERK2) (Homo sapiens (Human), UniProt P28482)
Assay: Active Human ERK2 (hERK2) Activity Assay (IMAP-FP)
Format: biochemical
Settings: phosphorylated active hERK2, 30 μM ATP; average; read-out: ERK 2 Human average IC50
Method in brief: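 Phosphorylation by activated human ERK2 (0.5 nM) at 30 μM ATP, peptide substrate 900 nM unlabeled with 80 nM labeled, proceeds 60 min. IMAP beads stop the reaction; after 60 min equilibration, product is measured by fluorescence polarization.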

Active Human ERK2 (hERK2), sequence (P28482 whole entry): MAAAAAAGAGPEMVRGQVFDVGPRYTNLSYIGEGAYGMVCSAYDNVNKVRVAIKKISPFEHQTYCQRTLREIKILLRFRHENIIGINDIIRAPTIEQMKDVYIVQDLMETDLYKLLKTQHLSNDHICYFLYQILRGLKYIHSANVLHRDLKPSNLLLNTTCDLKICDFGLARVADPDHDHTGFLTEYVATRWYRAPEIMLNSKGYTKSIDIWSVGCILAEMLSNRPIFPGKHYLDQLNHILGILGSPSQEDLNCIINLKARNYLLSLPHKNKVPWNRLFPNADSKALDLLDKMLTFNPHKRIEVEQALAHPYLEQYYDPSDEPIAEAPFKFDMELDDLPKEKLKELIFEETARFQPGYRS

SMILES | IC50 [nM]
Cc1cc(-c2n[nH]c3cc(NC(=O)NCc4cccc(F)c4)ncc23)ccn1 [Example 53, 1-(3-fluorobenzyl)-3-[3-(2-methylpyridin-4-yl)-1H-pyrazolo[4,3-c]pyridin-6-yl]urea] | 0.245
Cc1cc(-c2n[nH]c3cc(NC(=O)NCC(O)C(F)F)ncc23)ccn1 (centres unmarked) [Example 189] | 10.3
Cc1cc(-c2n[nH]c3cc(NC(=O)NCc4cnsc4)ncc23)ccn1 [Example 423] | 0.594
Cc1cc(-c2n[nH]c3cc(NC(=O)N[C@H]4CCCOc5ccccc54)ncc23)ccn1 [Example 284] | 8.28
NC(=O)Nc1cc2[nH]nc(-c3ccc(F)cc3)c2cn1 [Example 34, 1-(3-(4-fluorophenyl)-1H-pyrazolo[4,3-c]pyridin-6-yl)urea] | 1.68
Cc1cc(-c2n[nH]c3cc(NC(=O)NC4(c5ccc(Cl)cc5)CCOCC4)ncc23)ccn1 [Example 77, 1-[4-(4-chlorophenyl)tetrahydro-2H-pyran-4-yl]-3-[3-(2-methylpyridin-4-yl)-1H-pyrazolo[4,3-c]pyridin-6-yl]urea] | 15.1
COC[C@@H](NC(=O)Nc1cc2[nH]nc(-c3ccncc3)c2cn1)c1ccccc1 [Example 545] | 0.236
CO[C@@H](C)CNC(=O)Nc1cc2[nH]nc(-c3ccnc(C)c3)c2cn1 [Example 597] | 0.945
COCCNC(=O)Nc1cc2[nH]nc(-c3ccc(F)cc3)c2cn1 [Example 623, 1-[3-(4-Fluorophenyl)-1H-pyrazolo[4,3-c]pyridin-6-yl]-3-(2-methoxyethyl)urea] | 1.93
C[C@@H](NC(=O)Nc1cc2[nH]nc(C3CC3(F)F)c2cn1)c1ccc(F)cc1 (some centres unmarked) [Example 165] | 8.83
C[C@@H](NC(=O)Nc1cc2[nH]nc(-c3ccc4nn(C)cc4c3)c2cn1)c1cccc(Cl)c1 [Example 62, 1-[(1R)-1-(3-chlorophenyl)ethyl]-3-[3-(2-methyl-2H-indazol-5-yl)-1H-pyrazolo[4,3-c]pyridin-6-yl]urea] | 0.672
Cc1cc(-c2n[nH]c3cc(NC(=O)NCc4cc[nH]n4)ncc23)ccn1 [Example 419] | 2.72
C[C@@H](NC(=O)Nc1cc2[nH]nc(-c3cccc(Cl)c3)c2cn1)c1ccc(F)c(Cl)c1 [Example 76, 1-[(1R)-1-(3-chloro-4-fluorophenyl)ethyl]-3-[3-(3-chlorophenyl)-1H-pyrazolo[4,3-c]pyridin-6-yl]urea] | 56.1
Cc1cc(-c2n[nH]c3cc(NC(=O)NC4CC(=O)Nc5ccccc54)ncc23)ccn1 (centres unmarked) [Example 407] | 5.72
C[C@@H](NC(=O)Nc1cc2[nH]nc(-c3cccc(C#N)c3)c2cn1)c1ccccc1 [Example 672] | 1.55
C[C@@H](NC(=O)Nc1cc2[nH]nc(-c3ccc(=O)n(C)c3)c2cn1)c1ccc(F)cc1 [Example 71, 1-[(1R)-1-(4-fluorophenyl)ethyl]-3-[3-(1-methyl-6-oxo-1,6-dihydropyridin-3-yl)-1H-pyrazolo[4,3-c]pyridin-6-yl]urea] | 0.159
Cc1cc(-c2n[nH]c3cc(NC(=O)N[C@@H]4CCCc5ccncc54)ncc23)ccn1 [Example 263] | 1.8
Cc1cc(-c2n[nH]c3cc(NC(=O)NC4CCOC4)ncc23)ccn1 (centres unmarked) [Example 577] | 4
Cc1cc(-c2n[nH]c3cc(NC(=O)N[C@@H]4CN(C)C[C@H]4C)ncc23)ccn1 [Example 206] | 3.59
Cc1cc(-c2n[nH]c3cc(NC(=O)NCCN4CCC(c5ccccc5)C4)ncc23)ccn1 (centres unmarked) [Example 401] | 20
C[C@@H](NC(=O)Nc1cc2[nH]nc(-c3ccc4c(c3)OCCO4)c2cn1)c1ccccc1 [Example 88, 1-[3-(2,3-dihydro-1,4-benzodioxin-6-yl)-1H-pyrazolo[4,3-c]pyridin-6-yl]-3-[(1R)-1-phenylethyl]urea] | 1.16

SMILES | IC50 [nM]
Cc1cc(-c2n[nH]c3cc(NC(=O)NC4(c5ccccn5)CC4)ncc23)ccn1 [Example 351] | 91.9
Cc1cc(-c2n[nH]c3cc(NC(=O)NCc4c[nH]nn4)ncc23)ccn1 [Example 431] | 2.52
COc1cccc(F)c1CN1CCC[C@@H](NC(=O)Nc2cc3[nH]nc(-c4ccc5nn(C)cc5c4)c3cn2)C1 [Example 662] | 0.929
Cc1cc(-c2n[nH]c3cc(NC(=O)NCc4ncc(Cl)cc4F)ncc23)ccn1 [Example 487] | 10.1
CCOC[C@@H](NC(=O)Nc1cc2[nH]nc(-c3cc(C)on3)c2cn1)c1ccccc1 [Example 698] | 6.78
COC[C@@H](NC(=O)Nc1cc2[nH]nc(-c3ccc(N4CCOCC4)nc3)c2cn1)c1ccc(F)cc1 [Example 297] | 1.05
CC1=NOC(CNC(=O)Nc2cc3[nH]nc(-c4ccnc(C)c4)c3cn2)C1 (centres unmarked) [Example 191] | 17.6
Cc1cc(-c2n[nH]c3cc(NC(=O)NC4CCc5ccccc54)ncc23)ccn1 (centres unmarked) [Example 78, 1-(2,3-dihydro-1H-inden-1-yl)-3-[3-(2-methylpyridin-4-yl)-1H-pyrazolo[4,3-c]pyridin-6-yl]urea] | 5.39
CNC(=O)CNC(=O)Nc1cc2[nH]nc(-c3ccnc(C)c3)c2cn1 [Example 186] | 43.2
COCCNC(=O)Nc1cc2[nH]nc(-c3ccc(OC(C)C)nc3)c2cn1 [Example 630] | 2.12
O=C(Nc1cc2[nH]nc(-c3ccc(F)cc3)c2cn1)NC1CCOC1 (centres unmarked) [Example 609] | 5.83
Cc1cc(-c2n[nH]c3cc(NC(=O)NCCc4nc5ccccc5[nH]4)ncc23)ccn1 [Example 377] | 0.478
Cc1cc(-c2n[nH]c3cc(NC(=O)N[C@H]4CN(C)C[C@@H]4c4ccccc4F)ncc23)ccn1 [Example 183] | 0.662
Cc1cc(-c2n[nH]c3cc(NC(=O)NC(C)c4ccc(F)cn4)ncc23)ccn1 (centres unmarked) [Example 364] | 1.66
CC(C)CN(C)c1ncc(-c2n[nH]c3cc(NC(=O)N[C@H](C)c4ccc(F)cc4)ncc23)cn1 [Example 309] | 44.5
Cc1cc(-c2n[nH]c3cc(NC(=O)NCc4cn5c(C)cccc5n4)ncc23)ccn1 [Example 392] | 22.6
Cc1cc(-c2n[nH]c3cc(NC(=O)NCc4cscn4)ncc23)ccn1 [Example 432] | 0.745
C[C@@H](NC(=O)Nc1cc2[nH]nc(-c3cnn(C4COC4)c3)c2cn1)c1ccccc1 [Example 647] | 0.464
C[C@@H](NC(=O)Nc1cc2[nH]nc(C3CC3)c2cn1)c1ccccn1 [Example 152] | 116
Cc1cc(-c2n[nH]c3cc(NC(=O)N[C@@H](C)C(=O)O)ncc23)ccn1 [Example 454] | 237
C[C@@H](NC(=O)Nc1cc2[nH]nc(C#N)c2cn1)c1ccccc1 [Example 537, (R)-1-(3-cyano-1H-pyrazolo[4,3-c]pyridin-6-yl)-3-(1-phenylethyl)urea] | 66.6

SMILES | IC50 [nM]
Cc1cc(-c2n[nH]c3cc(NC(=O)NC(C)(C)CO)ncc23)ccn1 [Example 203] | 104
COc1ccccc1CNC(=O)Nc1cc2[nH]nc(-c3ccnc(C)c3)c2cn1 [Example 529] | 0.293
Cc1cc(-c2n[nH]c3cc(NC(=O)NCc4cnc(C)s4)ncc23)ccn1 [Example 434] | 1.14
Cc1cc(-c2n[nH]c3cc(NC(=O)NCc4cncc(F)c4)ncc23)ccn1 [Example 51, 1-[(5-fluoropyridin-3-yl)methyl]-3-[3-(2-methylpyridin-4-yl)-1H-pyrazolo[4,3-c]pyridin-6-yl]urea] | 1
Cc1cc(-c2n[nH]c3cc(NC(=O)N[C@@H]4CN(C)C[C@H]4F)ncc23)ccn1 [Example 329, 1-((3R,4R)-4-fluoro-1-methylpyrrolidin-3-yl)-3-(3-(2-methylpyridin-4-yl)-1H-pyrazolo[4,3-c]pyridin-6-yl)urea] | 56.5
Cc1cc(-c2n[nH]c3cc(NC(=O)NC[C@@H]4COCCO4)ncc23)ccn1 [Example 550] | 2.43
C[C@@H](NC(=O)Nc1cc2[nH]nc(-c3ccc(OC(F)(F)F)cc3)c2cn1)c1ccccc1 [Example 674] | 13.2
Cc1cc(-c2n[nH]c3cc(NC(=O)NC(C)c4ccc(S(C)(=O)=O)cc4)ncc23)ccn1 (centres unmarked) [Example 376] | 0.582
CCOCCNC(=O)Nc1cc2[nH]nc(-c3ccnc(C)c3)c2cn1 [Example 617] | 1.07
Cc1cc(-c2n[nH]c3cc(NC(=O)NCc4ccc(F)cc4F)ncc23)ccn1 [Example 513] | 1.56
Cc1cc(-c2n[nH]c3cc(NC(=O)NC(C)(C)c4ccccn4)ncc23)ccn1 [Example 357] | 106
Cc1cc(-c2n[nH]c3cc(NC(=O)Nc4ccc(NCCc5ccccc5)nn4)ncc23)ccn1 [Example 55, 1-[3-(2-methylpyridin-4-yl)-1H-pyrazolo[4,3-c]pyridin-6-yl]-3-{6-[(2-phenylethyl)amino]pyridazin-3-yl}urea] | 35
C[C@@H](NC(=O)Nc1cc2[nH]nc(-c3cncc(F)c3)c2cn1)c1ccc(F)cc1 [Example 664] | 2.49
CCc1c(NC(=O)N[C@H](C)c2ccccc2)ncc2c(-c3ccnc(C)c3)n[nH]c12 [Example 175] | 6.68
COc1ncc(-c2n[nH]c3cc(NC(=O)N[C@@H]4CCCOc5ccccc54)ncc23)cn1 [Example 312] | 0.751
Cc1cc(-c2n[nH]c3cc(NC(=O)NC(C)c4ccccc4OC(F)(F)F)ncc23)ccn1 (centres unmarked) [Example 524] | 2.39
COc1cccc(F)c1CN1CCC[C@@H](NC(=O)Nc2cc3[nH]nc(-c4ccc(C#N)cc4)c3cn2)C1 [Example 655] | 2.27
C[C@@H](NC(=O)Nc1cc2[nH]nc(C(N)C(F)(F)F)c2cn1)c1ccccc1 (stereo partly drawn) [Example 563, 1-(3-(1-amino-2,2,2-trifluoroethyl)-1H-pyrazolo[4,3-c]pyridin-6-yl)-3-((R)-1-phenylethyl)urea] | 251
Cc1cc(-c2n[nH]c3cc(NC(=O)NCc4ccsc4)ncc23)ccn1 [Example 475] | 0.385
Cc1cc(-c2n[nH]c3cc(NC(=O)NCc4cnoc4)ncc23)ccn1 [Example 437] | 1.95

Same assay, conditions: read-out: AERK2 IC50 (Active human ERK2 Activity Assay)

SMILES | IC50 [nM]
Cc1cc(-c2n[nH]c3cc(NC(=O)NCc4cccc(F)c4)ncc23)ccn1 [Example 53, 1-(3-fluorobenzyl)-3-[3-(2-methylpyridin-4-yl)-1H-pyrazolo[4,3-c]pyridin-6-yl]urea] | 0.2 to 1.7
NC(=O)Nc1cc2[nH]nc(-c3ccc(F)cc3)c2cn1 [Example 34, 1-(3-(4-fluorophenyl)-1H-pyrazolo[4,3-c]pyridin-6-yl)urea] | 0.2 to 1.7
C[C@@H](NC(=O)Nc1cc2[nH]nc(-c3ccc4nn(C)cc4c3)c2cn1)c1cccc(Cl)c1 [Example 62, 1-[(1R)-1-(3-chlorophenyl)ethyl]-3-[3-(2-methyl-2H-indazol-5-yl)-1H-pyrazolo[4,3-c]pyridin-6-yl]urea] | 0.2 to 1.7
C[C@@H](NC(=O)Nc1cc2[nH]nc(-c3ccc(=O)n(C)c3)c2cn1)c1ccc(F)cc1 [Example 71, 1-[(1R)-1-(4-fluorophenyl)ethyl]-3-[3-(1-methyl-6-oxo-1,6-dihydropyridin-3-yl)-1H-pyrazolo[4,3-c]pyridin-6-yl]urea] | 0.2 to 1.7
C[C@@H](NC(=O)Nc1cc2[nH]nc(-c3ccc4c(c3)OCCO4)c2cn1)c1ccccc1 [Example 88, 1-[3-(2,3-dihydro-1,4-benzodioxin-6-yl)-1H-pyrazolo[4,3-c]pyridin-6-yl]-3-[(1R)-1-phenylethyl]urea] | 0.2 to 1.7
Cc1cc(-c2n[nH]c3cc(NC(=O)NCc4cncc(F)c4)ncc23)ccn1 [Example 51, 1-[(5-fluoropyridin-3-yl)methyl]-3-[3-(2-methylpyridin-4-yl)-1H-pyrazolo[4,3-c]pyridin-6-yl]urea] | 0.2 to 1.7
